Measurements published in ChEMBL document CHEMBL3399933, “A combination of in silico and SAR studies to identify binding hot spots of Bcl-xL inhibitors” (Bioorg Med Chem, 2015).

These molecules were tested against Bcl-2-like protein 1 (Homo sapiens, UniProt Q07817) (assay: Inhibition of GST-tagged Bcl-xL (unknown origin) measured after 1 hr incubation by fluorescence polarization assay).
Bcl-2-like protein 1, sequence (Q07817 whole entry): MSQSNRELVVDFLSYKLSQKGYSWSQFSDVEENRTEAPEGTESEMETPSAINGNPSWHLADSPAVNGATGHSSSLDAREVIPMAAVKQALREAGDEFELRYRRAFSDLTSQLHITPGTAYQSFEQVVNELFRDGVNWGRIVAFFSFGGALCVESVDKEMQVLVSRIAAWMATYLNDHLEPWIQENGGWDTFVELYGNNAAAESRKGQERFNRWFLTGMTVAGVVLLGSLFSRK
Molecule O=C(O)c1ccccc1C(=O)c1ccc(Sc2ccc(Cl)cc2)c([N+](=O)[O-])c1 has a Ki of 500 nM.
For Cc1c(C(=O)O)c(-c2cccc(N3CCN(c4ccc(NS(=O)(=O)c5ccc(NC(CCN(C)C)CSc6ccccc6)c([N+](=O)[O-])c5)cc4)CC3)c2)c(-c2ccc(Cl)cc2)n1C (centres undefined), the IC50 was 6 nM.
Work on O=C(O)c1cccc(-c2ccc3c(c2)/C(=N/Nc2nc4ccccc4s2)CCC3)n1 yielded an IC50 of 21 nM.
Work on CC(C)C(C(=O)O)N1C(=O)/C(=C/c2ccc(Br)cc2)SC1=S (centres undefined) yielded a Ki of 2400 nM.
In the case of CCCN(C(=O)N[C@@H](CSCC(C)C)C(=O)O)C(=O)c1cccc(C#Cc2ccc(F)cc2F)c1, the IC50 is reported as 22000 nM.
CN(C)CC[C@H](CSc1ccccc1)Nc1ccc(S(=O)(=O)Nc2ncnc3cc(N4CCN(Cc5ccccc5-c5ccc(Cl)cc5)CC4)ccc23)cc1[N+](=O)[O-] gave an IC50 of 3 nM.
In the case of CCCN(C(=O)N[C@@H](CSCc1ccc(Br)cc1)C(=O)O)C(=O)c1cccc(C#Cc2ccc(F)cc2F)c1, the IC50 is reported as 13000 nM.
Cc1cc2c(C(C)C)c(O)c(O)c(C=O)c2c(O)c1-c1c(C)cc2c(C(C)C)c(O)c(O)c(C=O)c2c1O [GOSSYPOL] gave a Ki of 1000 nM.
CN(C)CC[C@H](CSc1ccccc1)Nc1ccc(S(=O)(=O)NC(=O)c2ccc(N3CCN(Cc4cccc(-c5ccccc5)c4)CC3)cc2)cc1[N+](=O)[O-] was tested, and the IC50 was 11 nM.
